Results as given in paper PMC12668308, “A Novel Antimalarial Agent that Inhibits Protein Synthesis in Plasmodium falciparum” (Angewandte Chemie (International Ed. in English), 2025).

Columns and labels:
[1] = test system: PCI domain-containing protein (W7JUC8); assay: iSPP profiling, P. falciparum lysate; assay type: binding, Plasmodium falciparum; details: 100 µM compound 34
Protocol: (§1) P. falciparum NF54 lysates were extracted as described in ^[26^] . The parasite asynchronous culture was extracted once 3-5% parasitemia was reached. Saponin lysis was done as described in 2.2.10. Once the parasite pellet was obtained, 2.5 volumes of ice-cold lysis buffer (50 mM Tris/HCl pH 7.5 (Avantor), 5% glycerol (Sigma-Aldrich), 150 mM NaCl (Carl Roth), 1.5 mM MgCl2 (Sigma-Aldrich), 1 mM DTT (Carl Roth), 0.8% IGEPAL CA-630 (Sigma-Aldrich), 1X Halt Protease and Phosphatase Inhibitor-Cocktails EDTA-free (Thermo Fisher Scientific)) was added to the parasite pellet. The lysate solution was subjected to three cycles of flash freeze-thaw with liquid nitrogen and ddH2O at RT. The lysates were centrifuged at 20,000 g for 20 minutes at 4 °C. The soluble protein fraction (supernatant) was collected and the protein content was quantified using the BCA assay (Pierce™ BCA Protein Assay Kit, Thermo Fisher Scientific). The lysate was stored at -80 °C until further use.
(§2) The P. falciparum lysate was thawed on ice and diluted to 0.8 mg/mL. The lysate was aliquoted, and each aliquot was incubated with either a vehicle control (DMSO), 34 (dissolved in DMSO), or varying concentrations of 31 (dissolved in DMSO) at 0.01 µM, 0.1 µM, 10 µM, 50 µM, and 100 µM. Subsequently, the samples were incubated at room temperature for 30 minutes using a rotating mixer. After distribution into a 96-well plate, the samples were treated with increasing concentrations of A.E.A. (v/v) ranging from 14% to 28% (14, 16, 18, 20, 22, 24, 26, and 28%). Following a 20-minute incubation at 37°C with shaking at 750 rpm, the samples were centrifuged at 4400 g for 35 minutes to remove precipitated proteins. The soluble fractions were then pooled in equal volumes into a single sample using the Bravo Automated Liquid Handling Platform. The pooled samples were subsequently prepared for LC-MS/MS analysis.
(§3) The raw LFQ-DIA intensity values of biological replicates across all conditions were normalized to the median abundance using Excel. The normalized values were then log2 transformed in Perseus (v2.0.10.0).^[58^] Missing values were imputed from a normal distribution (width 0.3, down shift 1.5), and p-values were obtained using a two-sample t-test over replicates with a permutation-based false discovery rate correction (FDR 0.05). Volcano plots were generated in RStudio using the EnhancedVolcano package (v. 1.20.0), ^[59^] plotting proteins by statistical significance (y-axis: –Log10 p-value) versus the magnitude of change (x-axis: log2 fold change of protein intensities for each compound condition relative to the vehicle control). The heatmap was generated in Perseus (v2.0.10.0). Dose-dependent curves were generated using normalized protein intensity values, expressed as a ratio to the vehicle control. Plots were created in GraphPad Prism (v8.3.0) using a nonlinear regression model.

[2] = test system: Uncharacterized protein (W7KAK7); assay: iSPP profiling, P. falciparum lysate; assay type: binding, Plasmodium falciparum; details: 100 µM compound 34
Protocol: as §1, §2, §3

[3] = test system: SPATR (W7KAV2); assay: iSPP profiling, P. falciparum lysate; assay type: binding, Plasmodium falciparum; details: 100 µM compound 34
Protocol: as §1, §2, §3

[4] = test system: Dd2 DDD107458 (Dd2 + pfeEF2); assay: [3H]-hypoxanthine incorporation assay; assay type: cell-based, Plasmodium falciparum
Protocol: (§4) ^[a]72-h [^3H] hypoxanthhine incorporation assay. Data is expressed as mean±s.d..
(§5) P. falciparum asexual blood stage parasites were cultured in human red blood cells (RBC, Blutspende SRK, Zurich) at a hematocrit of 5% in RPMI 1640 medium. The RPMI 1640 medium (ThermoFisher Scientific #51800−043) was supplemented with the following: 24 mM NaHCO3 (pH 7.3, Sigma-Aldrich #31437−500G-R), 25 mM Hepes (Sigma-Aldrich #H4034−500G), 0.36 mM hypoxanthine (Sigma-Aldrich # H9377−25G), 100 µg mL^-1 neomycin (Sigma-Aldrich #N6386−100G) and 0.5% Albumax II (Thermo Fisher #11021−045). Additionally, 2 mM choline chloride (279 mg/L, Sigma-Aldrich #C7527−100G) was added to the culture to block the induction of sexual commitment as described. ^[31^] The RPMI 1640 medium and components were dissolved in water (Milli-Q purified), stirred for at least 3 h, and then sterile filtered (0.22 μm pore size) with a bottle top filter (Corning # 431118). Parasite cultures were maintained in an atmosphere of 3% O2, 4% CO2, and 93% N2 in air-tight chambers at 37 °C. The [^3H]-hypoxanthine incorporation assay was used to test compound activity in the specific parasite lines as described.^[32^] Briefly, compounds were dissolved in DMSO (10 mM) and diluted in a hypoxanthine-free culture medium. A limiting dilution was performed over a 64-fold range (6-step twofold dilution) in a 96-well plate in duplicates. For every starting concentration, a limiting dilution was performed over a 64-fold range (6-step twofold dilution) in a 96-well plate in two biological duplicates. Parasites were added at 100 µL to each well containing the compound to obtain a final parasitemia of 0.3% and haematocrit of 1.25%. The plates were incubated for 48 h before 0.25 µCi of [^3H]-hypoxanthine was added per well for an additional 24 h. Parasites were harvested on a glass-fiber filter with a Microbeta FilterMate cell harvester (Perkin Elmer, Waltham, USA) and radioactivity was counted using a MicroBeta2 liquid scintillation counter (Perkin Elmer, Waltham, US). The results were recorded, processed by subtraction of the mean background signal obtained from the uninfected RBC controls and expressed as percentage of untreated controls. The fifty percent inhibitory concentration (IC50) was calculated by using nonlinear, four parameter (variable slope) curve fitting as described ^[33^] after importing into GraphPad Prism (version 8.3.0).

[5] = test system: Dd2 NITD609 (Dd2 + pfatp4); assay: [3H]-hypoxanthine incorporation assay; assay type: cell-based, Plasmodium falciparum
Protocol: as §4, §5

[6] = test system: Dd2 Fosmidomycin (Dd2 + pfdxr); assay: [3H]-hypoxanthine incorporation assay; assay type: cell-based, Plasmodium falciparum
Protocol: as §4, §5

[7] = test system: Dd2 MMV390048 (Dd2 + pfpI4k); assay: [3H]-hypoxanthine incorporation assay; assay type: cell-based, Plasmodium falciparum
Protocol: as §4, §5

[8] = test system: P. falciparum Dd2; assay: [3H]-hypoxanthine incorporation assay; assay type: cell-based, Plasmodium falciparum
Protocol: as §4, §5

[9] = test system: Dd2 ELQ300 (Dd2 + pfcytb); assay: [3H]-hypoxanthine incorporation assay; assay type: cell-based, Plasmodium falciparum
Protocol: as §4, §5

[10] = test system: Dd2 DSM265 (Dd2 + pfdhodh); assay: [3H]-hypoxanthine incorporation assay; assay type: cell-based, Plasmodium falciparum
Protocol: as §4, §5

[11] = Plasmodium falciparum, DD2, 72 h

Structure (SMILES)	log2FC [1]	log2FC [2]	log2FC [3]	IC50 fold shift relative to Dd2 strain ([4]; Dd2 DDD107458)	IC50 [4, 11] [nM]	IC50 fold shift relative to Dd2 strain ([5]; Dd2 NITD609)	IC50 [5, 11] [nM]	IC50 fold shift relative to Dd2 strain ([6]; Dd2 Fosmidomycin)	IC50 [6, 11] [nM]	IC50 fold shift relative to Dd2 strain ([7]; Dd2 MMV390048)	IC50 [7, 11] [nM]	IC50 fold shift relative to Dd2 strain ([8]; Dd2)	IC50 ratio relative to NF54 strain ([8]; Dd2)	IC50 [8, 11] [nM]	IC50 fold shift relative to Dd2 strain ([9]; Dd2 ELQ300)	IC50 [9, 11] [nM]	IC50 fold shift relative to Dd2 strain ([10]; Dd2 DSM265)	IC50 ([10]; Plasmodium falciparum, 72 h) [nM]
O=C(Nc1cc(CN2CCOCC2)ccc1F)c1cccc(Oc2cc(C(F)(F)F)ccn2)c1 [Compound 34, N-(2-Fluoro-5-(morpholinomethyl)phenyl)-3-((4-(trifluoromethyl)pyridin-2-yl)oxy)benzamide]	-0.3885	-0.4093	0.3835	–	–	–	–	–	–	–	–	–	–	–	–	–	–	–
CN1CCN(Cc2ccc(O)c(NC(=O)c3cccc(Oc4cc(C(F)(F)F)ccn4)c3)c2)CC1 [Compound 31, N-(2-hydroxy-5-((4-methylpiperazin-1-yl)methyl)phenyl)-3-((4-(trifluoromethyl)pyridin-2-yl)oxy)benzamide]	–	–	–	0.6	5.6 ± 0.9	0.7	6.2 ± 2.5	0.3	2.4 ± 0.6	0.5	4.8 ± 1.5	1.0	5.1	9.3 ± 0.4	0.5	4.4 ± 0.1	0.3	2.8 ± 0.5
